Experiments:
Format in all cases: in vivo
Conditions in all cases: 250 g/h, evaluated after 13 days
[1] = tested on: Alopecurus myosuroides (ALOMY); experiment: Pre-emergence herbicidal glasshouse test, percentage damage
Procedure, shortened: (§1)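 Spray solution: acetone/water (50:50), 0.5% Tween 20, applied at 250 g/h. Timing: 1 d (pre-emergence) or 8 d (post-emergence) after sowing. Readout: % plant damage at 13 d, banded 1–5.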

Avena fatua (AVEFA) [2] = experiment: as above
Procedure, shortened: as §1

[3] = tested on: Echinochloa crus-galli (ECHCG); experiment: as above
Procedure, shortened: as §1

Lolium perenne (LOLPE) [4] = experiment: as above
Procedure, shortened: as §1

Setaria faberi (SETFA) [5] = experiment: as above
Procedure, shortened: as §1

Setaria faberi (SETFA) [6] = experiment: Post-emergence herbicidal glasshouse test, percentage damage
Procedure, shortened: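 Wheat, barley and Setaria faberi were sprayed post-emergence after 8 days' growth (24/16 °C, 14 h light, 65% humidity) with compound in acetone/water (50:50) containing 0.5% Tween 20, at the indicated rates. On wheat, compounds were also applied with cloquintocet-mexyl at 50 g/ha. Damage was scored after 13 days on a five-point scale (5=80-100% to 1=0-19%).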

[7] = tested on: Alopecurus myosuroides (ALOMY); experiment: as above
Procedure, shortened: as §1

Avena fatua (AVEFA) [8] = experiment: as above
Procedure, shortened: as §1

[9] = tested on: Echinochloa crus-galli (ECHCG); experiment: as above
Procedure, shortened: as §1

Lolium perenne (LOLPE) [10] = experiment: as above
Procedure, shortened: as §1

Compound	ALOMY PRE percentage damage (five point scale) [1]	AVEFA PRE percentage damage (five point scale) (Avena fatua (AVEFA) [2])	ECHCG PRE percentage damage (five point scale) [3]	LOLPE PRE percentage damage (five point scale) (Lolium perenne (LOLPE) [4])	SETFA PRE percentage damage (five point scale) (Setaria faberi (SETFA) [5])	SETFA POST percentage damage (five point scale) (Setaria faberi (SETFA) [6])	ALOMY POST percentage damage (five point scale) [7]	AVEFA POST percentage damage (five point scale) (Avena fatua (AVEFA) [8])	ECHCG POST percentage damage (five point scale) [9]	LOLPE POST percentage damage (five point scale) (Lolium perenne (LOLPE) [10])
CC#Cc1cc(C)c(C2C(=O)CC3(CCN(C(=O)COCCOC)CC3)CC2=O)c(C)c1 [Compound A147]	4 (4=60-79%)	3 (3=40-59%)	5 (5=80-100%)	5 (5=80-100%)	5 (5=80-100%)	5 (5=80-100%)	5 (5=80-100%)	5 (5=80-100%)	5 (5=80-100%)	5 (5=80-100%)
CC#Cc1cc(C)c(C2C(=O)CC3(CCN(C(=O)COCC)CC3)CC2=O)c(C)c1 [Compound A148]	5 (5=80-100%)	5 (5=80-100%)	5 (5=80-100%)	5 (5=80-100%)	5 (5=80-100%)	5 (5=80-100%)	5 (5=80-100%)	5 (5=80-100%)	5 (5=80-100%)	5 (5=80-100%)
CC#Cc1cc(C)c(C2C(=O)CC3(CCN(C(=O)CC4OCCO4)CC3)CC2=O)c(C)c1 [Compound A151]	5 (5=80-100%)	5 (5=80-100%)	5 (5=80-100%)	5 (5=80-100%)	5 (5=80-100%)	5 (5=80-100%)	5 (5=80-100%)	5 (5=80-100%)	5 (5=80-100%)	5 (5=80-100%)
CC#Cc1cc(C)c(C2C(=O)CC3(CCN(C(=O)NC(C)C)CC3)CC2=O)c(C)c1 [Compound A152]	5 (5=80-100%)	5 (5=80-100%)	5 (5=80-100%)	5 (5=80-100%)	5 (5=80-100%)	5 (5=80-100%)	5 (5=80-100%)	5 (5=80-100%)	5 (5=80-100%)	5 (5=80-100%)
CC#Cc1cc(C)c(C2C(=O)CC3(CCN(C(=O)[C@H](C)OC)CC3)CC2=O)c(C)c1 [Compound A153]	5 (5=80-100%)	5 (5=80-100%)	5 (5=80-100%)	5 (5=80-100%)	5 (5=80-100%)	5 (5=80-100%)	5 (5=80-100%)	5 (5=80-100%)	5 (5=80-100%)	5 (5=80-100%)
CC#Cc1cc(C)c(C2C(=O)CC3(CCN(C(=O)[C@@H](C)OC)CC3)CC2=O)c(C)c1 [Compound A154]	5 (5=80-100%)	5 (5=80-100%)	5 (5=80-100%)	5 (5=80-100%)	5 (5=80-100%)	5 (5=80-100%)	5 (5=80-100%)	5 (5=80-100%)	5 (5=80-100%)	5 (5=80-100%)
CC#Cc1cc(C)c(C2C(=O)CC3(CCN(C(=O)[C@H](C)O)CC3)CC2=O)c(C)c1 [Compound A155]	5 (5=80-100%)	5 (5=80-100%)	5 (5=80-100%)	5 (5=80-100%)	5 (5=80-100%)	5 (5=80-100%)	5 (5=80-100%)	5 (5=80-100%)	5 (5=80-100%)	5 (5=80-100%)
CC#Cc1cc(C)c(C2C(=O)CC3(CCN(C(=O)[C@@H](C)O)CC3)CC2=O)c(C)c1 [Compound A156]	5 (5=80-100%)	5 (5=80-100%)	5 (5=80-100%)	5 (5=80-100%)	5 (5=80-100%)	5 (5=80-100%)	5 (5=80-100%)	5 (5=80-100%)	5 (5=80-100%)	5 (5=80-100%)
CC#Cc1cc(C)c(C2C(=O)CC3(CCN(C(=O)NC(=O)c4ccc(F)cn4)CC3)CC2=O)c(C)c1 [Compound A157]	3 (3=40-59%)	2 (2=20-39%)	5 (5=80-100%)	5 (5=80-100%)	5 (5=80-100%)	5 (5=80-100%)	5 (5=80-100%)	5 (5=80-100%)	5 (5=80-100%)	5 (5=80-100%)
CC#Cc1cc(C)c(C2C(=O)CC3(CCN(C(=O)NC(=O)c4ncc(C(F)(F)F)cc4Cl)CC3)CC2=O)c(C)c1 [Compound A158]	2 (2=20-39%)	2 (2=20-39%)	5 (5=80-100%)	3 (3=40-59%)	5 (5=80-100%)	5 (5=80-100%)	3 (3=40-59%)	5 (5=80-100%)	5 (5=80-100%)	5 (5=80-100%)
CC#Cc1cc(C)c(C2C(=O)CC3(CCN(C(=O)NC(=O)c4cccc(F)n4)CC3)CC2=O)c(C)c1 [Compound A159]	5 (5=80-100%)	5 (5=80-100%)	5 (5=80-100%)	5 (5=80-100%)	5 (5=80-100%)	5 (5=80-100%)	5 (5=80-100%)	5 (5=80-100%)	5 (5=80-100%)	5 (5=80-100%)
CC#Cc1cc(C)c(C2C(=O)CC3(CCN(C(=O)NC(=O)c4ccc(C#N)cn4)CC3)CC2=O)c(C)c1 [Compound A160]	2 (2=20-39%)	4 (4=60-79%)	4 (4=60-79%)	3 (3=40-59%)	5 (5=80-100%)	5 (5=80-100%)	4 (4=60-79%)	5 (5=80-100%)	4 (4=60-79%)	5 (5=80-100%)
CC#Cc1cc(C)c(C2C(=O)CC3(CCN(C(=O)NC(=O)c4ccc(Cl)cn4)CC3)CC2=O)c(C)c1 [Compound A162]	5 (5=80-100%)	5 (5=80-100%)	5 (5=80-100%)	5 (5=80-100%)	5 (5=80-100%)	5 (5=80-100%)	5 (5=80-100%)	5 (5=80-100%)	5 (5=80-100%)	5 (5=80-100%)
CC#Cc1cc(C)c(C2C(=O)CC3(CCN(C(=O)NC(=O)c4ncccc4F)CC3)CC2=O)c(C)c1 [Compound A163]	0	5 (5=80-100%)	5 (5=80-100%)	4 (4=60-79%)	5 (5=80-100%)	5 (5=80-100%)	5 (5=80-100%)	5 (5=80-100%)	5 (5=80-100%)	5 (5=80-100%)
